For assay [1], the system named is C57BL/6J mice after ligation of the left anterior descending coronary artery. Description: Myocardial infarction by coronary artery ligation: echocardiography, scar, TUNEL. In kind it is in vivo, mouse. From the text: Immunohistochemistry. Embryonic or adult cardiac tissue was embedded in paraffin and sections used for immunohistochemistry. […] Adult hearts were sectioned at ten equivalent levels from the base of the heart to the apex. Serial sections were used for trichrome sections and reaction with muscle actin, c-kit, Sca-1, Abcg2 and BrdU antibodies and for TUNEL assay (Intergen Company S7111).
Animals and surgical procedures. Myocardial infarction was produced in 58 male C57BL/6J mice at 16 weeks of age (25-30 g) by ligation of the left anterior descending coronary artery as previously described (Garner et al., 2003). All animal protocols were reviewed and approved by the University of Texas Southwestern Medical Center Institutional Animal Care Advisory Committee and were in compliance with the rules governing animal use as published by the NIH. Twenty-nine of the ligated mice received thymosin β4 treatment immediately after ligation and the remaining 29 received PBS injections. Treatment was given intracardiac with thymosin β4 (200 ng in 10 μl collagen) or with 10 μl of collagen; intraperitoneally with thymosin β4 (150 μg in 300 μl PBS) or with 300 μl of PBS; or by both intracardiac and intraperitoneal injections. Intraperitoneal injections were given every 3 days until mice were killed. Doses were based on previous studies of thymosin β4 biodistribution (Mora et al., 1997). Hearts were removed, weighed and fixed for histological sectioning. Additional mice were operated on in a similar fashion for studies 0.5, 1, 3, 6 and 11 days after ligation.
Analysis of cardiac function by echocardiography. Echocardiograms to assess systolic function were performed using M-mode and two-dimensional measurements as described previously (Garner et al., 2003). The measurements represented the average of six selected cardiac cycles from at least two separate scans performed in random-blind fashion with papillary muscles used as a point of reference for consistency in level of scan. End diastole was defined as the maximal left ventricle diastolic dimension and end systole was defined as the peak of posterior wall motion. Single outliers in each group were omitted for statistical analysis. Fractional shortening (FS), a surrogate of systolic function, was calculated from left ventricle dimensions as follows: FS=((EDD−ESD)/EDD)×100%. Ejection fraction (EF) was calculated from two-dimensional images.
Calculation of scar volume. Scar volume was calculated using six sections through the heart of each mouse using Openlab 3.03 software (Improvision) similar to that previously described (Balsam et al., 2004). Percent area of collagen deposition was measured on each section in a blinded fashion and averaged for each mouse.
Statistical analyses. Statistical calculations were performed using a standard t-test of variables with 95% confidence intervals.
Thymosin β4 promotes cell survival after myocardial infarction and improves cardiac function. Because of the effects of thymosin β4 on cardiac cells in vitro, the inventors tested whether thymosin β4 might aid in cardiac repair in vivo after myocardial damage. The inventors created myocardial infarctions in 58 adult mice by coronary artery ligation and treated half with systemic, intracardiac, or systemic plus intracardiac thymosin β4 immediately after ligation and the other half with PBS (FIGS. 4A-E). All 45 mice that survived 2 weeks later were interrogated for cardiac function by random-blind ultrasonography at 2 and 4 weeks after infarction by multiple measurements of cardiac contraction (FIGS. 4A-D).
TUNEL-positive cells that were also myocytes were rare in the thymosin β4 group but abundant in the control hearts. […] Thus, the decreased scar volume and preserved function of thymosin-β4-treated mice were probably due to early preservation of myocardium after infarction through the effects of thymosin β4 on survival of cardiomyocytes.

In assay [2] the target is T1, PINCH (Mus musculus, UniProt Q99JW4).
T1 construct: Myc or Flag (co-immunoprecipitation part only); expressed in transfected cells; host or cells: Cos and 10T1/2 cells (co-IP); T7Select10-3 phage displaying mouse embryonic heart cDNA (phage display / ELISA)
Description: Phage display, ELISA and co-immunoprecipitation of thymosin β4 interacting proteins: PINCH. In kind it is binding. From the text: Embryonic T7 phage display cDNA library and phage biopanning. Equal amounts of messenger RNA were isolated and purified from E9.5-E12.5 mouse embryonic hearts by using Straight A's mRNA Isolation System (Novagen). cDNA was synthesized by using T7Select10-3 OrientExpress cDNA Random Primer Cloning System (Novagen). The vector T7Select10-3 was used to display random-primed cDNA at the C terminus of 5-15 phage 10B coat protein molecules. 10^9 plaque-forming units of the T7 phage embryonic heart library (100× of the complexity) in 500 μl of PBST was applied to a column of Affi-gel bound to thymosin β4 to achieve low-stringency biopanning to identify thymosin β4 interacting partners. See Supplementary Methods for details of phage packaging, phage biopanning and ELISA confirmation.
Co-immunoprecipitation. Cos and 10T1/2 cells were transfected with thymosin β4, PINCH and/or ILK and lysates precipitated with antibodies to each as previously described (Garg et al., 2003). Western blots were performed using anti-ILK polyclonal antibody (Santa Cruz), anti-thymosin β4 polyclonal antibody (Yu et al., 1993) (gift of H. Yin) and anti-Myc or anti-Flag antibody against tagged versions of PINCH.
Thymosin β4 activates ILK and Akt. […]
For orientation: ELISA stands for enzyme-linked immunosorbent assay.

T1 sequence (Q99JW4 whole entry): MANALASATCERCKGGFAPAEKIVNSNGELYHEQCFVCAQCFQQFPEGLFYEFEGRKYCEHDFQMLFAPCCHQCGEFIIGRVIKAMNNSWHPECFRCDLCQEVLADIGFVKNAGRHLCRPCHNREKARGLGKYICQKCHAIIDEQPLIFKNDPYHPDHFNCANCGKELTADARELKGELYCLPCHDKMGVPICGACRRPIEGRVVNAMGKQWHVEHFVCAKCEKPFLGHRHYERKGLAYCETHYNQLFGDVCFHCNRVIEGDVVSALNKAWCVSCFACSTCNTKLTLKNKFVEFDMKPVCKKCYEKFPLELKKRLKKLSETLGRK

For the substance thymosin β4, the “cardiomyocyte proliferation or death” value in assay [1] (3, 6, 11 or 14 days after coronary ligation, data not shown) is reported as “did not detect significant”. Further, the “cell death by TUNEL assay in cardiomyocytes” value in assay [1] (24 h after ligation) was “marked decrease”. Besides, the “TUNEL-positive cells that were also myocytes” value in assay [1] (24 h after ligation, abundant in control hearts) is on record as “rare”. In assay [1] (3 days after infarction, intracardiac treatment, control 44.7±8.4%, P<0.02), the ejection fraction came out at 64.2±6.69%. For the same substance, in assay [1] (3 days after infarction, intracardiac treatment, n=4, 95% confidence interval, control 28.8±2.26%, P<0.02), the “left ventricle fractional shortening” value stood at 39.2±2.34%. Also, in assay [1] (after infarction, EDD and ESD significantly higher in control group), the “cardiac dilation (end diastolic and end systolic dimensions)” value is reported as “decreased cardiac dilation”. The substance further returned a mean ejection fraction in assay [1] (four weeks after coronary ligation, n=23, 95% confidence interval, control 28.2±2.5%, P<0.0001) of 57.7±3.2%. The “mean left ventricular fractional shortening” value in assay [1] (four weeks after infarction, n=23, 95% confidence intervals, control 23.2±1.2%, P<0.0001) is 37.2±1.8%. For the same substance, the scar volume result in assay [1] (six levels of sections through left ventricle, subset of mice, P<0.05) is reported as “significant reduction”. Moreover, in assay [1] (systemic i.p. 150 μg vs local 200 ng within the infarct), the “degree of functional improvement, intraperitoneal versus intracardiac administration” value is recorded as “not statistically different”. Besides, the “size of scar (trichrome stain)” value in assay [1] (three levels of section, all treated mice) is on record as “reduced”. For the same substance, the “number of c-kit, Sca-1 or Abcg2 positive cardiomyocytes” value in assay [1] (treated vs untreated hearts, data not shown) was “failed to detect any differences”. Also, in assay [1] (trichrome stain), the “size of scar, systemic versus local delivery” value is given as “not different”. In assay [1] (versus control, four weeks), the “improvement in cardiac fractional shortening” value is “greater than 60%” and the “improvement in ejection fraction” value was > 100%. In addition, in assay [2] (in the absence of actin, N-terminus fused to affi-gel beads), the “interaction with PINCH (phage display, ELISA)” value was “interacted”. Besides, the “co-precipitation with PINCH” value in assay [2] (transfected cultured cells) is reported as “co-precipitated”.

Source of the values: patent publication US7531318B2, “Screening of agents for activity against ischemic myocardial insults” (priority 2004, dated 2009).
